{"source": "patent US11851449B2", "about": "“Heterocyclic amide compounds having an RORvt inhibitory action” (TAKEDA PHARMACEUTICAL COMPANY LIMITED, priority 2013, dated 2023)", "key": {"RORγt [1]": {"biological_target": "T1, RORγt (Homo sapiens, UniProt P51449)", "T1 sequence (P51449 1-497 isoform P51449-2)": "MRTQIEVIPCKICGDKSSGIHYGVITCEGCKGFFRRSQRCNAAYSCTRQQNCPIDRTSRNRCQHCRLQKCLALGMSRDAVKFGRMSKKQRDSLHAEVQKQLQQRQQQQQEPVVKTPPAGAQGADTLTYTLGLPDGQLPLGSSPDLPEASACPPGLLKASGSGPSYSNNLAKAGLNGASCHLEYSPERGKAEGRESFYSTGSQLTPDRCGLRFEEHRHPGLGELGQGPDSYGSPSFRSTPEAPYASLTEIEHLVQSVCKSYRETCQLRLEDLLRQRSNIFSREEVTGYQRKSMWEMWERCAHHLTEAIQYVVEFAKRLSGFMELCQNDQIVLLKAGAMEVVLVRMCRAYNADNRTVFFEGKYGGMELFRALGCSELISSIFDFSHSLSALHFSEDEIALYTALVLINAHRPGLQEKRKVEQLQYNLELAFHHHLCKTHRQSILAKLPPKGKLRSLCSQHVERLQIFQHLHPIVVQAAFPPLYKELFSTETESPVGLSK", "experiment": "Cofactor recruitment test (Alpha Screen, biotinylated SRC-1 peptide)", "type": "biochemical", "settings": "read-out: signal value inhibitory rate (%) at test compound 1 μM", "procedure": "Cofactor Recruitment Test\nCofactor recruitment test was performed by Alpha Screen (Histidine Detection Kit, PerkinElmer) method. First, a test compound was diluted with an assay buffer (50 mM Tris-HCl (pH 7.5), 50 mM KCl, 1 mM DTT, 0.1% BSA) and added to a 384 well plate by 5 μL. […] The mixture was stood in a dark place for 1 hr, and the signal value was measured by Envision (PerkinElmer)."}, "RORγt [2]": {"biological_target": "T1, RORγt", "experiment": "Jurkat reporter test (human IL-17 ROR response element luciferase reporter)", "type": "cell-based", "settings": "read-out: luminescence level inhibitory rate (%) at test compound 3 μM", "procedure": "The Jurkat cells used for the reporter test were cultured in a culture medium (RPMI (Invitrogen), 10% FCS (AusGeneX), 100 U/mL penicillin, 100 μg/mL streptomycin). On the day of the test, 4×10^7 cells were recovered by a centrifugal operation (1000 rpm, 5 min.) and suspended in PBS (phosphate buffered saline) (Invitrogen). Thereafter, the cells were recovered again by a centrifugal operation, and suspended in 2 mL of R buffer (NEON transfection kit, Invitrogen). […] Gene transfer was performed by Electroporation apparatus (NEON, Invitrogen) under the conditions of pulse voltage 1350 V, interval 10 milliseconds, number of times 3. The cells after gene transfer were suspended in 40 mL of a reaction medium (RPMI, 10% Lipid reduced FCS (HyClone), 10 mM HEPES (pH 7.5), 100 U/mL penicillin, 100 μg/mL streptomycin, 5 μM lovastatin), and plated in a 96 well plate by 90 μL. A test compound diluted with the reaction medium was added by 10 μL, and the cells were cultured overnight in an incubator. Bright-Glo (Promega) was added by 100 μL, and the mixture was stirred at room temperature for 10 min, and the luminescence level was measured by Envision (PerkinElmer)."}, "RORγt [3]": {"biological_target": "T1, RORγt", "experiment": "RORγt binding test (TR-FRET, fluorescent-labeled cholesterol)", "settings": "read-out: binding inhibitory rate (%) of fluorescent-labeled cholesterol to RORγt at test compound 1 μM", "procedure": "The binding activity of the test compound to RORγt was measured by a time resolved fluorescence resonance energy transfer method (TR-FRET) utilizing histidine-tagged RORγt, fluorescent-labeled cholesterol (BODIPY-cholesterol, AVIVA), and terbium-labeled anti-histidine tag antibody (Invitrogen). First, a test compound diluted with an assay buffer (20 mM Tris-HCl (pH 7.5), 100 mM NaCl, 1 mM DTT, 0.1% BSA) was added to a 384 well plate by 3 μL. Then, RORγt diluted with an assay buffer to 240 nM was added by 3 μL, after which fluorescent-labeled cholesterol diluted with the assay buffer to 12 μM was added by 3 μL, and the mixture was stood at room temperature for 20 min. Thereafter, a terbium-labeled anti-histidine tag antibody diluted with the assay buffer to 8 nM was added by 3 μL. The mixture was stood at room temperature for 20 min, and fluorescence intensity (excitation wavelength 320 nm, fluorescence wavelength 520 nm, delay time 100 microseconds) was measured by Envision (PerkinElmer)."}}, "note": "Like-named read-outs stand apart in the source and are kept apart here."}
{"smiles": "COc1ccc([C@@H](NC(=O)[C@@H]2CNC(=O)C2)C(=O)Nc2ccc([Si](C)(C)C)c(F)c2)cc1", "note": "[Example 50, (3S)—N-((1R)-2-((3-fluoro-4-(trimethylsilyl)phenyl)amino)-1-(4-methoxyphenyl)-2-oxoethyl)-5-oxopyrrolidine-3-carboxamide]", "values": [{"measurement": "inhibition at 1 µM", "setting": "RORγt [1]", "result": 91.5, "unit": "%"}, {"measurement": "inhibition at 3 µM", "setting": "RORγt [2]; Jurkat", "result": 98, "unit": "%"}, {"measurement": "inhibition at 1 µM", "setting": "RORγt [3]", "result": 102, "unit": "%"}]}
{"smiles": "COCc1ccc([C@@H](NC(=O)c2cc(O)no2)C(=O)Nc2cc(F)c([Si](C)(C)C)cc2F)cc1", "note": "[Example 98, N-((1R)-2-((2,5-difluoro-4-(trimethylsilyl)phenyl)amino)-1-(4-(methoxymethyl)phenyl)-2-oxoethyl)-3-hydroxy-1,2-oxazole-5-carboxamide]", "values": [{"measurement": "inhibition at 1 µM", "setting": "RORγt [1]", "result": 95.8, "unit": "%"}, {"measurement": "inhibition at 3 µM", "setting": "RORγt [2]; Jurkat", "result": 99.2, "unit": "%"}, {"measurement": "inhibition at 1 µM", "setting": "RORγt [3]", "result": 102, "unit": "%"}]}
{"smiles": "COCc1ccc([C@@H](NC(=O)[C@@H]2CNC(=O)C2)C(=O)Nc2ccc([Si](C)(C)C)c(F)c2)cc1", "note": "[Example 49, (3S)—N-((1R)-2-((3-fluoro-4-(trimethylsilyl)phenyl)amino)-1-(4-(methoxymethyl)phenyl)-2-oxoethyl)-5-oxopyrrolidine-3-carboxamide]", "values": [{"measurement": "inhibition at 1 µM", "setting": "RORγt [1]", "result": 96.9, "unit": "%"}, {"measurement": "inhibition at 3 µM", "setting": "RORγt [2]; Jurkat", "result": 98.4, "unit": "%"}, {"measurement": "inhibition at 1 µM", "setting": "RORγt [3]", "result": 101, "unit": "%"}]}
{"smiles": "COCc1ccc([C@@H](NC(=O)N2CC[C@@H](O)C2)C(=O)Nc2ccc([Si](C)(C)C)c(F)c2)cc1", "note": "[Example 66, (3R)—N-((1R)-2-((3-fluoro-4-(trimethylsilyl)phenyl)amino)-1-(4-(methoxymethyl)phenyl)-2-oxoethyl)-3-hydroxypyrrolidine-1-carboxamide]", "values": [{"measurement": "inhibition at 1 µM", "setting": "RORγt [1]", "result": 94.6, "unit": "%"}, {"measurement": "inhibition at 3 µM", "setting": "RORγt [2]; Jurkat", "result": 98.5, "unit": "%"}, {"measurement": "inhibition at 1 µM", "setting": "RORγt [3]", "result": 103, "unit": "%"}]}
{"smiles": "CN(C(=O)c1cc(O)no1)C(C(=O)Nc1cc(F)c([Si](C)(C)C)c(F)c1)C1CCOCC1", "note": "(stereo not drawn) [Example 6, N-(2-((3,5-difluoro-4-(trimethylsilyl)phenyl)amino)-2-oxo-1-(tetrahydro-2H-pyran-4-yl)ethyl)-3-hydroxy-N-methyl-1,2-oxazole-5-carboxamide]", "values": [{"measurement": "inhibition at 1 µM", "setting": "RORγt [1]", "result": 99.4, "unit": "%"}, {"measurement": "inhibition at 3 µM", "setting": "RORγt [2]; Jurkat", "result": 101, "unit": "%"}, {"measurement": "inhibition at 1 µM", "setting": "RORγt [3]", "result": 102, "unit": "%"}]}
{"smiles": "COc1ccc([C@H](C(=O)Nc2cc(F)c([Si](C)(C)C)cc2F)N(C)C(=O)c2cc(O)no2)cc1", "note": "[Example 25, N-((1R)-2-((2,5-difluoro-4-(trimethylsilyl)phenyl)amino)-1-(4-methoxyphenyl)-2-oxoethyl)-3-hydroxy-N-methyl-1,2-oxazole-5-carboxamide]", "values": [{"measurement": "inhibition at 1 µM", "setting": "RORγt [1]", "result": 95.7, "unit": "%"}, {"measurement": "inhibition at 3 µM", "setting": "RORγt [2]; Jurkat", "result": 100, "unit": "%"}, {"measurement": "inhibition at 1 µM", "setting": "RORγt [3]", "result": 102, "unit": "%"}]}
{"smiles": "COCc1ccc([C@@H](NC(=O)C2CC(F)(F)C2)C(=O)Nc2ccc([Si](C)(C)C)c(F)c2)cc1", "note": "[Example 91, 3,3-difluoro-N-((1R)-2-((3-fluoro-4-(trimethylsilyl)phenyl)amino)-1-(4-(methoxymethyl)phenyl)-2-oxoethyl)cyclobutanecarboxamide]", "values": [{"measurement": "inhibition at 1 µM", "setting": "RORγt [1]", "result": 94.6, "unit": "%"}, {"measurement": "inhibition at 3 µM", "setting": "RORγt [2]; Jurkat", "result": 98, "unit": "%"}, {"measurement": "inhibition at 1 µM", "setting": "RORγt [3]", "result": 102, "unit": "%"}]}
{"smiles": "COCc1ccc([C@@H](NC(=O)C2CC2(F)F)C(=O)Nc2ccc([Si](C)(C)C)c(F)c2)cc1", "note": "(stereo partly drawn) [Example 84, 2,2-difluoro-N-((1R)-2-((3-fluoro-4-(trimethylsilyl)phenyl)amino)-1-(4-(methoxymethyl)phenyl)-2-oxoethyl)cyclopropanecarboxamide]", "values": [{"measurement": "inhibition at 1 µM", "setting": "RORγt [1]", "result": 94.4, "unit": "%"}, {"measurement": "inhibition at 3 µM", "setting": "RORγt [2]; Jurkat", "result": 100, "unit": "%"}, {"measurement": "inhibition at 1 µM", "setting": "RORγt [3]", "result": 101, "unit": "%"}]}
{"smiles": "COCc1ccc([C@@H](NC(=O)[C@H]2CNC(=O)C2)C(=O)Nc2ccc(C(C)(C)C)c(F)c2)cc1", "note": "[Example 102, (3R)—N-((1R)-2-((4-tert-butyl-3-fluorophenyl)amino)-1-(4-(methoxymethyl)phenyl)-2-oxoethyl)-5-oxopyrrolidine-3-carboxamide]", "values": [{"measurement": "inhibition at 1 µM", "setting": "RORγt [1]", "result": 83.8, "unit": "%"}, {"measurement": "inhibition at 3 µM", "setting": "RORγt [2]; test compound 3 μM, Jurkat cells", "result": 97.8, "unit": "%"}, {"measurement": "inhibition at 1 µM", "setting": "RORγt [3]", "result": 100, "unit": "%"}]}
{"smiles": "COCc1ccc(C(C(=O)Nc2ccc([Si](C)(C)C)c(F)c2)N(C)C(=O)c2cc(O)no2)cc1", "note": "(stereo not drawn) [Example 31, N-(2-((3-fluoro-4-(trimethylsilyl)phenyl)amino)-1-(4-(methoxymethyl)phenyl)-2-oxoethyl)-3-hydroxy-N-methyl-1,2-oxazole-5-carboxamide]", "values": [{"measurement": "inhibition at 1 µM", "setting": "RORγt [1]", "result": 98.3, "unit": "%"}, {"measurement": "inhibition at 3 µM", "setting": "RORγt [2]; Jurkat", "result": 99.5, "unit": "%"}, {"measurement": "inhibition at 1 µM", "setting": "RORγt [3]", "result": 99.5, "unit": "%"}]}
